Assay results taken from the NIST ThermoML archive (doi:10.1021/je200637v).
± gives the expanded uncertainty stated by the source.

Test: activity coefficient (dimensionless); of the first substance listed, at infinite dilution; xn = mol fraction of the nth substance listed
Settings: Liquid, Chromatography, x1 = 0

CCCCCCCCCCCC [dodecane] + CCCCCCCC[N+](C)(C)C.O=S(=O)([N-]S(=O)(=O)C(F)(F)F)C(F)(F)F
activity coefficient (322.85 K): 33.1 ± 1.5 | activity coefficient (332.65 K): 30.5 ± 1.4 | activity coefficient (343.15 K): 27.1 ± 1.3

CCCCCCCCCCCC [dodecane] + CCCCCCCC[N+](CCCCCCCC)(CCCCCCCC)CCCCCCCC.O=S(=O)([N-]S(=O)(=O)C(F)(F)F)C(F)(F)F
activity coefficient (343.15 K): 2.72 ± 0.12

CCCCCCCCCCCC [dodecane] + CCCC[N+](C)(CCCC)CCCC.O=S(=O)([N-]S(=O)(=O)C(F)(F)F)C(F)(F)F
activity coefficient (322.85 K): 32.4 ± 1.5 | activity coefficient (332.65 K): 31.3 ± 1.4 | activity coefficient (343.15 K): 28.8 ± 1.3

CCO [ethanol] + CCCCCCCCCC[N+](C)(C)C.O=S(=O)([N-]S(=O)(=O)C(F)(F)F)C(F)(F)F
activity coefficient (322.85 K): 1.29 ± 0.04 | activity coefficient (332.65 K): 1.19 ± 0.04 | activity coefficient (343.15 K): 1.07 ± 0.03

CCO [ethanol] + CCCCCCCC[N+](C)(C)C.O=S(=O)([N-]S(=O)(=O)C(F)(F)F)C(F)(F)F
activity coefficient (322.85 K): 1.47 ± 0.06 | activity coefficient (332.65 K): 1.32 ± 0.05 | activity coefficient (343.15 K): 1.19 ± 0.04

CCO [ethanol] + CCCCCCCC[N+](CCCCCCCC)(CCCCCCCC)CCCCCCCC.O=S(=O)([N-]S(=O)(=O)C(F)(F)F)C(F)(F)F
activity coefficient (322.85 K): 1.18 ± 0.04 | activity coefficient (332.65 K): 1.12 ± 0.03 | activity coefficient (343.15 K): 1.05 ± 0.03

CCO [ethanol] + CCCC[N+](C)(CCCC)CCCC.O=S(=O)([N-]S(=O)(=O)C(F)(F)F)C(F)(F)F
activity coefficient (322.85 K): 1.53 ± 0.06 | activity coefficient (332.65 K): 1.4 ± 0.05 | activity coefficient (343.15 K): 1.27 ± 0.04

CCc1ccccc1 [ethylbenzene] + CCCCCCCCCC[N+](C)(C)C.O=S(=O)([N-]S(=O)(=O)C(F)(F)F)C(F)(F)F
activity coefficient (322.85 K): 1.16 ± 0.04 | activity coefficient (332.65 K): 1.2 ± 0.04 | activity coefficient (343.15 K): 1.19 ± 0.04

CCc1ccccc1 [ethylbenzene] + CCCCCCCC[N+](C)(C)C.O=S(=O)([N-]S(=O)(=O)C(F)(F)F)C(F)(F)F
activity coefficient (322.85 K): 1.39 ± 0.05 | activity coefficient (332.65 K): 1.4 ± 0.05 | activity coefficient (343.15 K): 1.38 ± 0.05

CCc1ccccc1 [ethylbenzene] + CCCCCCCC[N+](CCCCCCCC)(CCCCCCCC)CCCCCCCC.O=S(=O)([N-]S(=O)(=O)C(F)(F)F)C(F)(F)F
activity coefficient (322.85 K): 0.59 ± 0.03 | activity coefficient (332.65 K): 0.6 ± 0.03 | activity coefficient (343.15 K): 0.61 ± 0.03

CCc1ccccc1 [ethylbenzene] + CCCC[N+](C)(CCCC)CCCC.O=S(=O)([N-]S(=O)(=O)C(F)(F)F)C(F)(F)F
activity coefficient (322.85 K): 1.56 ± 0.06 | activity coefficient (332.65 K): 1.64 ± 0.07 | activity coefficient (343.15 K): 1.63 ± 0.07

CCCCCCC [heptane] + CCCCCCCCCC[N+](C)(C)C.O=S(=O)([N-]S(=O)(=O)C(F)(F)F)C(F)(F)F
activity coefficient (322.85 K): 5.26 ± 0.24 | activity coefficient (332.65 K): 5.14 ± 0.23 | activity coefficient (343.15 K): 4.92 ± 0.22

CCCCCCC [heptane] + CCCCCCCC[N+](C)(C)C.O=S(=O)([N-]S(=O)(=O)C(F)(F)F)C(F)(F)F
activity coefficient (322.85 K): 8.27 ± 0.38 | activity coefficient (332.65 K): 7.81 ± 0.36 | activity coefficient (343.15 K): 7.18 ± 0.33

CCCCCCC [heptane] + CCCCCCCC[N+](CCCCCCCC)(CCCCCCCC)CCCCCCCC.O=S(=O)([N-]S(=O)(=O)C(F)(F)F)C(F)(F)F
activity coefficient (322.85 K): 1.5 ± 0.06 | activity coefficient (332.65 K): 1.48 ± 0.06 | activity coefficient (343.15 K): 1.47 ± 0.06

CCCCCCC [heptane] + CCCC[N+](C)(CCCC)CCCC.O=S(=O)([N-]S(=O)(=O)C(F)(F)F)C(F)(F)F
activity coefficient (322.85 K): 8.88 ± 0.41 | activity coefficient (332.65 K): 8.82 ± 0.4 | activity coefficient (343.15 K): 8.34 ± 0.38

C=CCCCC [hex-1-ene] + CCCCCCCCCC[N+](C)(C)C.O=S(=O)([N-]S(=O)(=O)C(F)(F)F)C(F)(F)F
activity coefficient (322.85 K): 2.7 ± 0.12 | activity coefficient (332.65 K): 2.86 ± 0.13 | activity coefficient (343.15 K): 2.76 ± 0.13

C=CCCCC [hex-1-ene] + CCCCCCCC[N+](C)(C)C.O=S(=O)([N-]S(=O)(=O)C(F)(F)F)C(F)(F)F
activity coefficient (322.85 K): 3.99 ± 0.18 | activity coefficient (332.65 K): 3.8 ± 0.17 | activity coefficient (343.15 K): 3.6 ± 0.16

C=CCCCC [hex-1-ene] + CCCCCCCC[N+](CCCCCCCC)(CCCCCCCC)CCCCCCCC.O=S(=O)([N-]S(=O)(=O)C(F)(F)F)C(F)(F)F
activity coefficient (322.85 K): 1.05 ± 0.03 | activity coefficient (332.65 K): 1.05 ± 0.03 | activity coefficient (343.15 K): 1.04 ± 0.03

C=CCCCC [hex-1-ene] + CCCC[N+](C)(CCCC)CCCC.O=S(=O)([N-]S(=O)(=O)C(F)(F)F)C(F)(F)F
activity coefficient (322.85 K): 4.31 ± 0.2 | activity coefficient (332.65 K): 4.4 ± 0.2 | activity coefficient (343.15 K): 4.25 ± 0.19

CCCCCC [hexane] + CCCCCCCCCC[N+](C)(C)C.O=S(=O)([N-]S(=O)(=O)C(F)(F)F)C(F)(F)F
activity coefficient (322.85 K): 4.2 ± 0.19 | activity coefficient (332.65 K): 4.1 ± 0.18 | activity coefficient (343.15 K): 3.93 ± 0.17

CCCCCC [hexane] + CCCCCCCC[N+](C)(C)C.O=S(=O)([N-]S(=O)(=O)C(F)(F)F)C(F)(F)F
activity coefficient (322.85 K): 6.21 ± 0.28 | activity coefficient (332.65 K): 5.83 ± 0.27 | activity coefficient (343.15 K): 5.36 ± 0.24

CCCCCC [hexane] + CCCCCCCC[N+](CCCCCCCC)(CCCCCCCC)CCCCCCCC.O=S(=O)([N-]S(=O)(=O)C(F)(F)F)C(F)(F)F
activity coefficient (322.85 K): 1.3 ± 0.04 | activity coefficient (332.65 K): 1.29 ± 0.04 | activity coefficient (343.15 K): 1.28 ± 0.04

CCCCCC [hexane] + CCCC[N+](C)(CCCC)CCCC.O=S(=O)([N-]S(=O)(=O)C(F)(F)F)C(F)(F)F
activity coefficient (322.85 K): 6.75 ± 0.31 | activity coefficient (332.65 K): 6.75 ± 0.31 | activity coefficient (343.15 K): 6.44 ± 0.29
